Broadly, the GI50 is the concentration at which growth is held to half of that of the control. What is called TGI is the concentration giving total growth inhibition.

Holding throughout (type): functional
Assay [1] deals with MDA-MB-468. Nature of the assay: Growth inhibition of human MDA-MB-468 cells incubated for 48 hrs by sulforhodamine B assay. As to conditions: MDA-MB-468, 48 h. For orientation: Sulforhodamine B stains cellular protein and so reports cell mass.
In assay [2] the test system is HOP-92. Description: Growth inhibition of human HOP92 cells assessed as cell growth at 0.003 uM incubated for 48 hrs by sulforhodamine B assay relative to control. The following applies: HOP-92, 48 h, read-out: Activity.
Assay [3] concerns HCT-15. Nature of the assay: Growth inhibition of human HCT15 cells assessed as cell growth at 0.003 uM incubated for 48 hrs by sulforhodamine B assay relative to control. The following applies: HCT-15, 48 h, read-out: Activity.
The subject of assay [4] is SK-MEL-28. Description: Growth inhibition of human SK-MEL-28 cells assessed as cell growth at 0.003 uM incubated for 48 hrs by sulforhodamine B assay relative to control. As to conditions: SK-MEL-28, 48 h, read-out: Activity.
Assay [5] has as its system IGROV-1. Description: Growth inhibition of human IGROV1 cells assessed as cell growth at 0.003 uM incubated for 48 hrs by sulforhodamine B assay relative to control. As to conditions: IGROV-1, 48 h, read-out: Activity.
Assay [6] deals with DU-145. Nature of the assay: Growth inhibition of human DU145 cells assessed as cell growth at 0.003 uM incubated for 48 hrs by sulforhodamine B assay relative to control. As to conditions: DU-145, 48 h, read-out: Activity.
The subject of assay [7] is T47D. Description: Growth inhibition of human T47D cells assessed as cell growth at 0.003 uM incubated for 48 hrs by sulforhodamine B assay relative to control. As to conditions: read-out: Activity.
Assay [8] has as its system SR. Nature of the assay: Growth inhibition of human SR cells assessed as cell growth at 0.03 uM incubated for 48 hrs by sulforhodamine B assay relative to control. The following applies: read-out: Activity.
The test system of assay [9] is HCT-116. Nature of the assay: Growth inhibition of human HCT116 cells assessed as cell growth at 0.03 uM incubated for 48 hrs by sulforhodamine B assay relative to control. The following applies: HCT-116, 48 h, read-out: Activity.
Assay [10] has as its system U-251. Description: Growth inhibition of human U251 cells assessed as cell growth at 0.03 uM incubated for 48 hrs by sulforhodamine B assay relative to control. As to conditions: U-251, 48 h, read-out: Activity.
Assay [11] concerns NCI/ADR-RES. Description: Growth inhibition of human NCI/ADR-RES cells assessed as cell growth at 0.03 uM incubated for 48 hrs by sulforhodamine B assay relative to control. As to conditions: read-out: Activity.
Assay [12] relates to K562. Description: Growth inhibition of human K562 cells assessed as cell growth at 0.3 uM incubated for 48 hrs by sulforhodamine B assay relative to control. As to conditions: K562, 48 h, read-out: Activity.
Assay [13] has as its system U-251. Nature of the assay: Growth inhibition of human U251 cells assessed as cell growth at 0.3 uM incubated for 48 hrs by sulforhodamine B assay relative to control. As to conditions: U-251, 48 h, read-out: Activity.
Assay [14] relates to SN12C. Nature of the assay: Growth inhibition of human SN12C cells assessed as cell growth at 0.3 uM incubated for 48 hrs by sulforhodamine B assay relative to control. As to conditions: read-out: Activity.
Assay [15] concerns NCI-H226. Description: Growth inhibition of human NCI-H226 cells assessed as cell growth at 3 uM incubated for 48 hrs by sulforhodamine B assay relative to control. The following applies: NCI-H226, 48 h, read-out: Activity.
The test system of assay [16] is NCI-H522. Description: Growth inhibition of human NCI-H522 cells assessed as cell growth at 3 uM incubated for 48 hrs by sulforhodamine B assay relative to control. The following applies: NCI-H522, 48 h, read-out: Activity.
Assay [17] relates to 786-0. Nature of the assay: Growth inhibition of human 786-0 cells assessed as cell growth at 3 uM incubated for 48 hrs by sulforhodamine B assay relative to control. As to conditions: 786-0, 48 h, read-out: Activity.
The subject of assay [18] is SR. Description: Growth inhibition of human SR cells assessed as cell growth at 30 uM incubated for 48 hrs by sulforhodamine B assay relative to control. The following applies: read-out: Activity.
Assay [19] concerns UACC-62. Nature of the assay: Growth inhibition of human UACC62 cells assessed as cell growth at 30 uM incubated for 48 hrs by sulforhodamine B assay relative to control. As to conditions: UACC-62, 48 h, read-out: Activity.
The test system of assay [20] is UO-31. Nature of the assay: Growth inhibition of human UO31 cells assessed as cell growth at 30 uM incubated for 48 hrs by sulforhodamine B assay relative to control. The following applies: UO-31, 48 h, read-out: Activity.
Assay [21] concerns NCI-H23. Nature of the assay: Growth inhibition of human NCI-H23 cells assessed as cell growth at 0.01 uM incubated for 48 hrs by sulforhodamine B assay relative to control. As to conditions: NCI-H23, 48 h, read-out: Activity.
The subject of assay [22] is COLO 205. Description: Growth inhibition of human COLO205 cells assessed as cell growth at 0.01 uM incubated for 48 hrs by sulforhodamine B assay relative to control. The following applies: COLO 205, 48 h, read-out: Activity.
The subject of assay [23] is RXF 393. Description: Growth inhibition of human RXF393 cells assessed as cell growth at 0.01 uM incubated for 48 hrs by sulforhodamine B assay relative to control. As to conditions: RXF 393, 48 h, read-out: Activity.
For assay [24], the system named is BT-549. Nature of the assay: Growth inhibition of human BT549 cells assessed as cell growth at 0.01 uM incubated for 48 hrs by sulforhodamine B assay relative to control. As to conditions: BT-549, 48 h, read-out: Activity.
The test system of assay [25] is HCC 2998. Description: Growth inhibition of human HCC2998 cells assessed as cell growth at 0.1 uM incubated for 48 hrs by sulforhodamine B assay relative to control. The following applies: HCC 2998, 48 h, read-out: Activity.
Assay [26] deals with HT-29. Nature of the assay: Growth inhibition of human HT-29 cells assessed as cell growth at 0.1 uM incubated for 48 hrs by sulforhodamine B assay relative to control. The following applies: HT-29, 48 h, read-out: Activity.
The test system of assay [27] is SF-539. Description: Growth inhibition of human SF539 cells assessed as cell growth at 0.1 uM incubated for 48 hrs by sulforhodamine B assay relative to control. As to conditions: SF-539, 48 h, read-out: Activity.
Assay [28] relates to HL-60(TB). Nature of the assay: Growth inhibition of human HL-60(TB) cells assessed as cell growth at 1 uM incubated for 48 hrs by sulforhodamine B assay relative to control. The following applies: HL-60, 48 h, read-out: Activity.
For assay [29], the system named is 786-0. Nature of the assay: Growth inhibition of human 786-0 cells assessed as cell growth at 1 uM incubated for 48 hrs by sulforhodamine B assay relative to control. The following applies: 786-0, 48 h, read-out: Activity.
Assay [30] concerns HOP-92. Nature of the assay: Growth inhibition of human HOP92 cells assessed as cell growth at 10 uM incubated for 48 hrs by sulforhodamine B assay relative to control. The following applies: HOP-92, 48 h, read-out: Activity.
Assay [31] deals with SNB-75. Description: Growth inhibition of human SNB75 cells assessed as cell growth at 10 uM incubated for 48 hrs by sulforhodamine B assay relative to control. The following applies: SNB-75, 48 h, read-out: Activity.
Assay [32] has as its system M14. Description: Growth inhibition of human M14 cells assessed as cell growth at 10 uM incubated for 48 hrs by sulforhodamine B assay relative to control. The following applies: M14, 48 h, read-out: Activity.
Assay [33] relates to Malme-3M. Description: Growth inhibition of human MALME-3M cells assessed as cell growth at 100 uM incubated for 48 hrs by sulforhodamine B assay relative to control. The following applies: read-out: Activity.
For assay [34], the system named is 786-0. Description: Growth inhibition of human 786-0 cells assessed as cell growth at 100 uM incubated for 48 hrs by sulforhodamine B assay relative to control. The following applies: 786-0, 48 h, read-out: Activity.

`Cc1nc2cc(O)c(O)cc2cc1Oc1ccc(NC(=O)Nc2ccc(Cl)c(Cl)c2)cc1`: halving of growth in [1] (GI50) required 6.99 µM. This compound showed a TGI in assay [1] of 17.4 µM. Moreover, the CC50 in assay [1] (read-out: LC50 (the source's name)) was greater than 32.5 µM. Moreover, the growth at 0.003 µM was found to be 84% in assay [2]; 100% in [3]; 90% in assay [4]; 104% in assay [5]; 105% in assay [6]; 102% in assay [7]. In addition, the growth at 0.03 µM in [8] was determined as 99%; in [9], 89%; in [10], 94%; in [11] it was 97%. In addition, the growth at 0.3 µM in [12] turned out to be 123%; in [13], 87%; in assay [14], 105%. For the same compound, the growth at 3 µM in [15] is 102%; in assay [16] it was 65%; in assay [17], 98%. Besides, the growth at 30 µM was -20% in [18], -78% in assay [19] and -51% in assay [20].

In the case of `COc1cc2cc(Oc3ccc(NC(=O)Nc4ccc(Cl)c(C(F)(F)F)c4)cc3)c(C)nc2cc1OC`, the growth at 0.003 µM in assay [2] was found to be 92%; in assay [3], 95%; in assay [4], 99%; in assay [5], 107%; in assay [6] it was 100%; in [7], 94%. In addition, the growth at 0.03 µM in [8] was found to be 92%; in assay [9], 91%; in assay [10] it was 97%; in [11], 98%. In addition, the growth at 0.3 µM in [12] came to 93%; in [13], 94%; in assay [14] it was 94%. The growth at 3 µM in [15] is 11%; in [16] it was -8%; in assay [17] it was 16%. In addition, the growth at 30 µM in assay [18] was -43%; in assay [19], -75%; in assay [20] it was -71%.

Take `COc1cc2cc(Oc3ccc(NC(=O)Nc4ccc(Cl)c(Cl)c4)cc3)c(C)nc2cc1OC`: the growth at 0.01 µM in assay [21] turned out to be 98%; in assay [22] it was 106%; in [23], 106%; in assay [24], 78%. Besides, the results for the growth at 0.1 µM in [25], in assay [26] and in assay [27] were 101%, 110% and 103%, respectively. The results for the growth at 1 µM in [28] and in [29] were 107% and 86%, respectively. The results for the growth at 10 µM in [30], in assay [31] and in assay [32] were -41%, -7% and 2%, respectively. In addition, the growth at 100 µM in [33] was -99%; in assay [34], -66%.

Compound `COc1cc2cc(Oc3ccc(NC(=O)Nc4cc(C(F)(F)F)cc(C(F)(F)F)c4)cc3)c(C)nc2cc1OC` displayed a GI50 in [1] of 1.08 µM. Moreover, the total growth inhibition concentration (TGI) in assay [1] is 3.96 µM. The growth at 0.01 µM in assay [21] is 99%; in [22], 93%; in assay [23], 100%; in [24], 91%. Further, the results for the growth at 0.1 µM in assay [25], in [26] and in assay [27] were 107%, 97% and 94%, respectively. For the same compound, the growth at 1 µM in assay [28] is 72%; in assay [29], 87%. For the same compound, the results for the growth at 10 µM in assay [30], in assay [31] and in assay [32] were -38%, -32% and -59%, respectively. The growth at 100 µM in [33] is -74%; in assay [34], -83%.

The values above are taken from ChEMBL document CHEMBL3994622, “Design and synthesis of new RAF kinase-inhibiting antiproliferative quinoline derivatives. Part 2: Diarylurea derivatives” (Eur J Med Chem, 2017).
